One assay deals with T1, squalene synthase (Rattus norvegicus, UniProt Q02769).
T1 construct: from tissue; host or cells: rat liver homogenate
T1 sequence (Q02769 1-416): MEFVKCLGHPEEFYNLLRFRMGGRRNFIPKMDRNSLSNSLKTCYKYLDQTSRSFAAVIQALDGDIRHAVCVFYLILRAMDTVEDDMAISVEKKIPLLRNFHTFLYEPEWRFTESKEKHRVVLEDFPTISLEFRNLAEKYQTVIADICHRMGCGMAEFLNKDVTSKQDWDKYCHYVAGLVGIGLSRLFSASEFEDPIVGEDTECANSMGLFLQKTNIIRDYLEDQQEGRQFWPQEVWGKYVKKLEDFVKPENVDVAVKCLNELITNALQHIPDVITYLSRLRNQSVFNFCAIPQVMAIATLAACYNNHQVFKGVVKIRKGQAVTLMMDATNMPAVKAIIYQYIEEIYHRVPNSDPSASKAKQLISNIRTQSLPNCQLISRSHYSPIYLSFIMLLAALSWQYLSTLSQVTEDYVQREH
Nature of the assay: Inhibition of squalene synthase ([14C]squalene production from [2-14C]farnesylpyrophosphate). Format: biochemical.
Conditions: not given
The source says:
A. Biller et al. in J. […] [¹⁴C]squalene is separated from unreacted substrate on thin layer chromatography plates and determined by liquid scintillation counting. […] Acta, Volume 877, 50-60 (1986) and modified to include measurement of cholesterol by high performance liquid chromatography (h.p.l.c.). […] A. […] [¹⁴C] Squalene was separated from unreacted substrate on thin layer chromatography plates and determined by liquid scintillation counting. Inhibition of squalene synthase was quantified by incubating rat liver homogenate with various concentrations of the test compound in the presence of [2-¹⁴C] farnesylpyrophosphate. The concentration of compound giving 50% inhibition of [¹⁴C] squalene production in a 30 minute assay was taken as the IC₅₀ value.
The compound `C=C(CC[C@]12O[C@H](C(=O)O)[C@@](O)(C(=O)O)[C@](C(=O)O)(O1)[C@H](OC(=O)CCCC(C)=O)[C@H]2O)[C@@H](OC(C)=O)[C@H](C)Cc1ccccc1` (relative stereo) [Example 51, [1S-[1α(4R*,5S*),3α,4β,5α,6α,7β]] 1-(4-Acetyloxy-5-methyl-3-methylene-6-phenylhexyl)-4,6,7-trihydroxy-2,8-dioxabicyclo[3.2.1]octane-3,4,5-tricarboxylic acid, 6-(5-oxo-hexanoate)] returned an IC50 below 100 nM.

Turning to `C=C(CCC12OC(C(=O)O)C(O)(C(=O)O)C(C(=O)O)(O1)C(OC(C)=O)C2O)C(OC(C)=O)C(C)Cc1ccccc1` (stereo not drawn) [Compound 1 in Example 28, [1S-[1α(4R*,5S*),3α,4β,5α,6α,7β]] 1-(4-Acetyloxy-5-methyl-3-methylene-6-phenylhexyl)-4,6,7-trihydroxy-2,8-dioxabicyclo[3.2.1]octane-3,4,5-tricarboxylic acid, 6-acetate], the IC50 was below 100 nM.

The compound `C=C(CC[C@]12O[C@H](C(=O)O)[C@@](O)(C(=O)O)[C@](C(=O)O)(O1)[C@H](OC(=O)NC)[C@H]2O)[C@@H](OC(C)=O)[C@H](C)Cc1ccccc1` (relative stereo) [Example 67, [1S-[1α(4R*,5S*),3α,4β,5α,6α,7β]] 1-(4-Acetyloxy-5-methyl-3-methylene-6-phenylhexyl)-4,7-dihydroxy-6-[[(methylamino)carbonyl]oxy]-2,8-dioxabicyclo[3.2.1]octane-3,4,5-tricarboxylic acid] displayed an IC50 below 100 nM.

The compound `CC[C@H](C)C[C@H](C)CCC(=O)O[C@@H]1[C@@H](O)[C@@]2(C/C=C(\C)[C@@H](O)[C@H](C)Cc3ccccc3)O[C@H](C(=O)O)[C@@](O)(C(=O)O)[C@]1(C(=O)O)O2` (relative stereo) [Example 14, [1S-[1α[(E),4R*,5S*],3α,4β,5α,6α(4S*,6R*),7β]] 1-(3,5-Dimethyl-4-hydroxy-6-phenyl-2-hexenyl)-4,6,7-trihydroxy-2,8-dioxabicyclo[3.2.1]octane-3,4,5-tricarboxylic acid, 6-(4,6-dimethyloctanoate)] yielded an IC50 below 100 nM.

Turning to `CCC(C)CC(C)CCC(=O)OC1C(O)C2(CCCC(=O)C(C)Cc3ccccc3)OC(C(=O)O)C(O)(C(=O)O)C1(C(=O)O)O2` (stereo not drawn) [Example 20, [1S-[1α(5R*S*),3α,4β,5α,6α(4S*,6R*),7β]] 1-(5-Methyl-4-oxo-6-phenylhexyl)-4,6,7-trihydroxy-2,8-dioxabicyclo[3.2.1]octane-3,4,5-tricarboxylic acid, 6-(4,6-dimethyloctanoate)], the IC50 is below 100 nM.

In turn, `C=C(CC[C@]12O[C@H](C(=O)O)[C@@](O)(C(=O)O)[C@](C(=O)O)(O1)[C@H](OC(=O)NCC)[C@H]2O)[C@@H](OC(C)=O)[C@H](C)Cc1ccccc1` (relative stereo) [Example 66, [1S-[1α(4R*,5S*),3α,4β,5α,6α,7β]] 1-(4-Acetyloxy-5-methyl-3-methylene-6-phenylhexyl)-6-[[(ethylamino)carbonyl]oxy]4,7-dihydroxy-2,8-dioxabicyclo[3.2.1]octane-3,4,5-tricarboxylic acid] had an IC50 below 100 nM.

As to `CCC(C)CC(C)CCC(=O)OC1C(O)C2(CCC(C)C(=O)CCc3ccccc3)OC(C(=O)O)C(O)(C(=O)O)C1(C(=O)O)O2` (stereo not drawn) [Example 21, [1S-[1α[3R*(S*)],3α,4β,5α,6α(4S*,6R*),7β]] 1-(3-Methyl-4-oxo-6-phenylhexyl)-4,6,7-trihydroxy-2,8-dioxabicyclo[3.2.1]octane-3,4,5-tricarboxylic acid, 6-(4,6-dimethyloctanoate)], the IC50 was below 100 nM.

The assay is the same for the next values; noted with them: rat liver homogenate; [2-¹⁴C] farnesylpyrophosphate as substrate; 50% inhibition of [¹⁴C] squalene production in a 30 minute assay; read-out: IC₅₀.
Take `CCC(C)CC(C)/C=C/C(=O)OC1C(O)C2(CCC(C)C(O)C(C)Cc3ccccc3)OC(C(=O)O)C(O)(C(=O)O)C1(C(=O)O)O2` (single isomer, unassigned) [Example 8, [1S-[1α[3R*(S*),4R*(S*),5S*],3α,4β,5α,6α(2E,4R*,6R*),7β]] 1-(4-Hydroxy-3,5-dimethyl-6-phenylhexyl)-4,6,7-trihydroxy-2,8-dioxabicyclo[3.2.1]octane-3,4,5-tricarboxylic acid, 6-(4,6-dimethyl-2-octenoate), isomer 3 and isomer 4]: the IC50 was below 100 nM.

The record behind these values is patent publication EP0497091A1, “Bridged cyclic ketal derivatives” (GLAXO GROUP LIMITED, priority 1991, dated 1992).
